According to ChEMBL document CHEMBL1201862, “PubChem BioAssay data set” (2004):
Counter-ions that a name gives are not always drawn. Activity calls are given as the source filed them.

What was measured:
[1] = biological target: Cytochrome P450 2C19 (Homo sapiens, UniProt P33261); assay: Cytochrome panel assay with activity outcomes. Panel member name: p450-cyp2c19 Compounds with AC50 equal or less than 10 uM are considered active; type: functional
[2] = Luminescence Cell-Based Dose Response HTS to Identify Activators of Luciferase Translation or Activity in H4 […] Cells. [Related pubchem assays: 1829 (Project Summary), 1814 (Primary HTS)]; type: functional
[3] = system: H4; assay: Luminescence Cell-Based Dose Response HTS to Identify Activators of 5'UTR Stem-Loop Driven Prion Protein mRNA Translation in H4 Neuroglioblastoma Cells. [Related pubchem assays: 1829 (Project Summary), 1814 (Primary HTS)]; type: functional; details: Homo sapiens
[4] = Luminescence Cell-Based Dose Confirmation HTS to Identify Activators of 5'UTR Stem-Loop Driven Alpha-Synuclein mRNA Translation in H4 Neuroglioblastoma Cells. [Related pubchem assays: 1829 (Project Summary), 1814 (Primary HTS)]; type: functional
[5] = biological target: Genome polyprotein (dengue virus type 2, UniProt P29990); assay: flavivirus cap methylation enzyme inhibition – biochemical, confirmation dose response, primary screen (AID 588689); type: functional
[6] = microbe, parasite or virus in culture; type: functional; details: Mycobacterium tuberculosis
[7] = biological target: Glyceraldehyde-3-phosphate dehydrogenase (Homo sapiens, UniProt P04406)
[8] = biological target: T1, Cytochrome P450 3A4 (Homo sapiens, UniProt P08684); details: Potency
[9] = biological target: Cytochrome P450 2C9 (Homo sapiens, UniProt P11712)
[10] = biological target: Cytochrome P450 2D6 (Homo sapiens, UniProt P10635);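 also: CYP2D6 member of a cytochrome P450 panel assay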
[11] = biological target: T2, DNA repair and recombination protein RAD54-like (Homo sapiens, UniProt Q92698); assay: RAD54 Holliday junction migration blockers – biochemical, fluorescence, cherry-picked samples, dose series, confirmation (AID 651657); type: functional
T2 sequence (Q92698 whole entry): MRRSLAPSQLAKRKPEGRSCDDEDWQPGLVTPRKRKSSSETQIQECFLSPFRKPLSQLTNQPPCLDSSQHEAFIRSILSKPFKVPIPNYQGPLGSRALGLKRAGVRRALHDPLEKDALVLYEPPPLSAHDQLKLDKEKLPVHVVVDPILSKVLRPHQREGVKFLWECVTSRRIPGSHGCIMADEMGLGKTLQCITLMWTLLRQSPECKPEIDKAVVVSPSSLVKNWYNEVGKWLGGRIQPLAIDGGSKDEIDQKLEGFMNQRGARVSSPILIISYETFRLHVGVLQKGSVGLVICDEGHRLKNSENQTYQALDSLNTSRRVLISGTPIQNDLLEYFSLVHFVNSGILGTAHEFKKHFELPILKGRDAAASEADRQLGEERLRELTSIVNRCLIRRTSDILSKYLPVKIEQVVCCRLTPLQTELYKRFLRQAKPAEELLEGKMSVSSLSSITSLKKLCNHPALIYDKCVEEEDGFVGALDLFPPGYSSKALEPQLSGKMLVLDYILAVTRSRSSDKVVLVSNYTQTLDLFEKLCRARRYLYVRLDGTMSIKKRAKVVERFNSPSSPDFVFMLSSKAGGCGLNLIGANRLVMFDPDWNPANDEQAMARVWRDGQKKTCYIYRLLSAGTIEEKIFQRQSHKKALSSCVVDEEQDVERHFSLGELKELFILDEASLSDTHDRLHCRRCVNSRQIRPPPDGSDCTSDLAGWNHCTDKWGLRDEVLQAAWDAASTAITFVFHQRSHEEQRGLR

[12] = biological target: T1, Cytochrome P450 3A4
[13] = biological target: T3, DNA repair protein RAD52 homolog (Homo sapiens, UniProt P43351); type: functional, biochemical
T3 sequence (P43351 whole entry): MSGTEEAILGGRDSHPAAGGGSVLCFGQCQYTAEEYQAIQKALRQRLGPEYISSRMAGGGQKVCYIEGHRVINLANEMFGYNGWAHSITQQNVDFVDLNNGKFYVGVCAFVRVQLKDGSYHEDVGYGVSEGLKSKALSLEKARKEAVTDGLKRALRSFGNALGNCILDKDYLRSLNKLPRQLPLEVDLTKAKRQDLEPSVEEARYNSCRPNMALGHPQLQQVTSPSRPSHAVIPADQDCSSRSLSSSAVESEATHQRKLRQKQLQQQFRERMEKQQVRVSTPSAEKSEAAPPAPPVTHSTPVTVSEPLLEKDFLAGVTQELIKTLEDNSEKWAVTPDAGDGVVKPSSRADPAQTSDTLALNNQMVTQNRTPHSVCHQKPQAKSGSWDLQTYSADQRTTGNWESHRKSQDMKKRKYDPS

[14] = biological target: T4, Ubiquitin-conjugating enzyme E2 N (Homo sapiens, UniProt P61088); type: functional;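 also: Dose-response confirmation in a TR-FRET assay detecting UBC13-driven polyubiquitin chain formation, inhibition measured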
T4 sequence (P61088 whole entry): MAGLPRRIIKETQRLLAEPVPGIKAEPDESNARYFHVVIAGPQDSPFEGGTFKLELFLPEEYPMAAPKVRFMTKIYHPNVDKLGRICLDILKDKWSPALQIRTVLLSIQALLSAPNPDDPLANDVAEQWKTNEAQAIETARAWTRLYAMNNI

[15] = cells; type: functional, cell-based
[16] = cells; type: functional, cell-based; remark: listed apart in the source
[17] = cells; type: functional
[18] = DRD fibroblast viability loss – cell-based, non-viral oncogenic, luminescence, dose response (AID 1934); type: functional; details: Homo sapiens
[19] = system: BJ; assay: BJ-TERT-LT-ST fibroblast viability loss – cell-based, RAS-independent, luminescence, dose response (AID 1935); type: functional; details: Homo sapiens;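 also: BJ fibroblasts immortalized with TERT plus LT and ST oncogenes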
[20] = Luminescence Cell-Based Dose Confirmation HTS to Identify Inhibitors of Platelet Dense Granule Release. [Related pubchem assays: 1663 (Primary HTS), 1678 (Summary of Project)]; type: functional
[21] = system: BJ; assay: cells; type: functional, cell-based; details: Homo sapiens
[22] = system: BJ; assay: BJ-TERT fibroblast viability loss – cell-based, RAS-independent, luminescence, dose response (AID 1933); type: functional; details: Homo sapiens
[23] = biological target: Luciferin 4-monooxygenase (Photinus pyralis, UniProt P08659); assay: inhibition of purified Photinus pyralis luciferase – biochemical, luminescence, dose response (AID 1891)
[24] = system: Vero; assay: cells; type: functional; details: Chlorocebus sabaeus
[25] = viability of HCT116 lacking mutant beta-catenin – cell-based, human colon tumor, dose response (AID 1045); type: functional;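 also: HCT116 colon tumor cells with beta catenin knocked out; cells exposed to compound for 60 hours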
[26] = NIH3T3 cell viability loss – ATP luminescence, mouse fibroblasts, counter-screen, dose response (AID 2010); type: functional, cell-based;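 also: cells exposed to compound for about 90 hours before reading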
[27] = viability of PTEN-deleted HCT116 cells – cell-based, HCT116 PTEN knockout, dose response (AID 1047); type: functional;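 also: HCT116 colon tumor cells with PTEN knocked out; cells exposed to compound for 60 hours before readout; potency for loss of cell viability measured by luminescence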
[28] = Trypanosoma cruzi growth suppression in host cells – NIH3T3 host cells, beta-gal luminescence, confirmation (AID 2044); type: functional, cell-based;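 also: intracellular parasites grown in NIH/3T3 mouse fibroblasts as host cells; luminescent beta-galactosidase reporter signal from transgenic T. cruzi replicating inside host cells; inhibitors lower the luminescence signal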
[29] = biological target: FAD-linked sulfhydryl oxidase ALR (Homo sapiens, UniProt P55789); assay: ALR-catalysed DTT oxidation blockers – biochemical, H2O2 detection, luminescence, cherry-pick, dose response (AID 493248)
Sequence of FAD-linked sulfhydryl oxidase ALR (P55789 whole entry): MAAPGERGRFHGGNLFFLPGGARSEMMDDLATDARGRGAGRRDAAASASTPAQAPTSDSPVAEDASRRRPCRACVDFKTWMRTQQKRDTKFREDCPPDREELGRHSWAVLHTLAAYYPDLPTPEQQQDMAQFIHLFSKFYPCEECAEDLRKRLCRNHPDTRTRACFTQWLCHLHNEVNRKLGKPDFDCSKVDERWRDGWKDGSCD

Sequence of Cytochrome P450 2C19 (P33261 whole entry): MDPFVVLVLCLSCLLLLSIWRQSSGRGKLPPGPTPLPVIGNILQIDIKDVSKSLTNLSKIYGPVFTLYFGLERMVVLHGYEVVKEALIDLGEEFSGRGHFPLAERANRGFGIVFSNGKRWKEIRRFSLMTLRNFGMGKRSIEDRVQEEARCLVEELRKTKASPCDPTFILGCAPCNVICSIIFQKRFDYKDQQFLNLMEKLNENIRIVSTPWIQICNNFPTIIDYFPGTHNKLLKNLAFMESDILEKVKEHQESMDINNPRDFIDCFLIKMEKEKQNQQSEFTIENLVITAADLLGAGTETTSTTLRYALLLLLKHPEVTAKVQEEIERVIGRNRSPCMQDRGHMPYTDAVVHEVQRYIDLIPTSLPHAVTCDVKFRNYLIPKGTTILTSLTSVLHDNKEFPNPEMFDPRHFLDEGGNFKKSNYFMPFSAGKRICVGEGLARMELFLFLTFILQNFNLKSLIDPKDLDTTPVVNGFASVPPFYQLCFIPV
T1 sequence (P08684 whole entry): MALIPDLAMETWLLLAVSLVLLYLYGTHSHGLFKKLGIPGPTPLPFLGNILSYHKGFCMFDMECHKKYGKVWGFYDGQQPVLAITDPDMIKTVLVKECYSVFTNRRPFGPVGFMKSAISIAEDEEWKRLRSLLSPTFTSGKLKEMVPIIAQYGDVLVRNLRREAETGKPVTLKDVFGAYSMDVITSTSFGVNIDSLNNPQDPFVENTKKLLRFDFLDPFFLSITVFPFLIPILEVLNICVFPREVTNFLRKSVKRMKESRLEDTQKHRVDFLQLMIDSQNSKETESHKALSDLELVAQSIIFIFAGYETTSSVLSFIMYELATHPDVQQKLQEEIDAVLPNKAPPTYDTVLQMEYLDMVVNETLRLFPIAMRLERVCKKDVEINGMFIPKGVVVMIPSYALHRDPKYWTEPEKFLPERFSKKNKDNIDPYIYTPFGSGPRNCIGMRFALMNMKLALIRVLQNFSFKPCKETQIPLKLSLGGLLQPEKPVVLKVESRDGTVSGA
Sequence of Genome polyprotein (P29990 2492-3391 limits assumed): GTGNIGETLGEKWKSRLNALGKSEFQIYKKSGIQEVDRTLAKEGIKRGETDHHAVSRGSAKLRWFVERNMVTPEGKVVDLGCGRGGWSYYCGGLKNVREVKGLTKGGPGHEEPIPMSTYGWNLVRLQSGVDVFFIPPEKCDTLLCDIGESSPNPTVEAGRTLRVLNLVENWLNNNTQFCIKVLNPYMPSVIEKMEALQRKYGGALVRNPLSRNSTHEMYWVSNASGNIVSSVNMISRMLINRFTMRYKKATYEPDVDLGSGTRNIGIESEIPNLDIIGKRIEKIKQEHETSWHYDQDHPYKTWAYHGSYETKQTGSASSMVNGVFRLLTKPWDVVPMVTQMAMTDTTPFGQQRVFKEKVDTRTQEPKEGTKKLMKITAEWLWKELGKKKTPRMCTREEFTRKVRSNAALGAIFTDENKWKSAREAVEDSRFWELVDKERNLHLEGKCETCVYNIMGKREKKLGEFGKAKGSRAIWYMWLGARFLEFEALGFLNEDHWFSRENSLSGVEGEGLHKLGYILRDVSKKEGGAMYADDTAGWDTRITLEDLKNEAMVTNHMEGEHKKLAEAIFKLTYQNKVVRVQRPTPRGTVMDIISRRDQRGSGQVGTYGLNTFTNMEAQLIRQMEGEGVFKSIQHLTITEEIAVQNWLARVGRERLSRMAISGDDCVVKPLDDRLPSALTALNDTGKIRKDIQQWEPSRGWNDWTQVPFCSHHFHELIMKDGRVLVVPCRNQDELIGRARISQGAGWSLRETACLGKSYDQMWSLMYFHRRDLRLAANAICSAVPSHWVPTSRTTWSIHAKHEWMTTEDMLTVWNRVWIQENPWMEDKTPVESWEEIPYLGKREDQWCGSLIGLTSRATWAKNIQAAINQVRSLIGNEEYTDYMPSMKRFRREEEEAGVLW
Sequence of Cytochrome P450 2D6 (P10635 whole entry): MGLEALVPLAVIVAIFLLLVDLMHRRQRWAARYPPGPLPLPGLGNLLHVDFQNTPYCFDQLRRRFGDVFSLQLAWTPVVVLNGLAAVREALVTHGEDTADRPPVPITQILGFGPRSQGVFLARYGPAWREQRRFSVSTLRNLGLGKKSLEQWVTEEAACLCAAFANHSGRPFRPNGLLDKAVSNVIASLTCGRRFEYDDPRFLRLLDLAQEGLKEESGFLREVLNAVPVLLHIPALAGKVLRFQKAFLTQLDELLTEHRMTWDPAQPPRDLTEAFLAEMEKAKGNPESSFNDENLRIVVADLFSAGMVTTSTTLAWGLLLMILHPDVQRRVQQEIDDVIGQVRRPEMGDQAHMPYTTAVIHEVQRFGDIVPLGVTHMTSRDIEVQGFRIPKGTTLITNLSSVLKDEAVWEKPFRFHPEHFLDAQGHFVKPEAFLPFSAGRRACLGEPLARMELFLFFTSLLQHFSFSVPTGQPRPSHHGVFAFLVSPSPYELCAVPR
Sequence of Glyceraldehyde-3-phosphate dehydrogenase (P04406 whole entry): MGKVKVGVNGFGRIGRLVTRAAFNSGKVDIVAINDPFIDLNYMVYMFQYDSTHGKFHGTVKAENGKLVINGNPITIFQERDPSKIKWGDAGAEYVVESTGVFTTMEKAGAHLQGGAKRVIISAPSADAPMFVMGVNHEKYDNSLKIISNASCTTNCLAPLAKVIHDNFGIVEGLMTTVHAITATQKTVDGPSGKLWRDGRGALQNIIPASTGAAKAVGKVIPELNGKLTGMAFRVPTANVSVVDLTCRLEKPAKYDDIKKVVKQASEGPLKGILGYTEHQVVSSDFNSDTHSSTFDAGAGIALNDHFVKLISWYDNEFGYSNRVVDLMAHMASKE
Sequence of Cytochrome P450 2C9 (P11712 whole entry): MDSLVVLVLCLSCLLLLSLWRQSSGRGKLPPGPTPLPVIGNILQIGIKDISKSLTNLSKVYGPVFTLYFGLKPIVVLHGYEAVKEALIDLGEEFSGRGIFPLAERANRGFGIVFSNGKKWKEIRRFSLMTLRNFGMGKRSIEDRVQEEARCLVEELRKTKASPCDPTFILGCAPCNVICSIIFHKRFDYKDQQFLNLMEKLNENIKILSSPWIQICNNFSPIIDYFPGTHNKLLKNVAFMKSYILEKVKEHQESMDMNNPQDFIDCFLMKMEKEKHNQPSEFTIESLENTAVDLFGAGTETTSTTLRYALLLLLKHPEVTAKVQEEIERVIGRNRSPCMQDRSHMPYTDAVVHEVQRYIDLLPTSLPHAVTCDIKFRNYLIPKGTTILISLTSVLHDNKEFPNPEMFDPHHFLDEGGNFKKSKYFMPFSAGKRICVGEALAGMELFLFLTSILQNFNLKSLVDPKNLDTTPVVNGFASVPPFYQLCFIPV
Sequence of Luciferin 4-monooxygenase (P08659 whole entry): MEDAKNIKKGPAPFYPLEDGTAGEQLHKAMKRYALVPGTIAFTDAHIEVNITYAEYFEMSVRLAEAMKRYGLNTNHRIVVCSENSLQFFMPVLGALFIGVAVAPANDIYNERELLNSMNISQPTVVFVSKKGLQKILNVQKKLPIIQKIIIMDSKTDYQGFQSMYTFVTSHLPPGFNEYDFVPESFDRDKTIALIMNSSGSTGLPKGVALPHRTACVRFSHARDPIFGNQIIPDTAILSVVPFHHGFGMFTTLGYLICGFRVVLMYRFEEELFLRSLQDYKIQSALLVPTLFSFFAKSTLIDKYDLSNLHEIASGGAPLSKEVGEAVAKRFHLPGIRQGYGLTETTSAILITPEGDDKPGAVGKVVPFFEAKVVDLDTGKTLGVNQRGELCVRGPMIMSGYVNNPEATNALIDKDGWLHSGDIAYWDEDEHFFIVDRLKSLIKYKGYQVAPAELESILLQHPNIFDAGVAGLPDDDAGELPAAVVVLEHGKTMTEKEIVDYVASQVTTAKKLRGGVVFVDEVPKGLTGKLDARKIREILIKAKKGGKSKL

For CN(C)c1ccc(-c2cc(NCc3cccnc3)ncn2)cc1, the AC50 [1] was 39.8 µM (inconclusive).

For COn1c(-c2ccc(Cl)cc2)nc2ncccc21, the EC50 [2] was 35.5 µM (active), the EC50 [3] was 51.9 µM (active) and the EC50 [4] was 0.106 µM (active).

For CC1=NOC(=O)/C1=C/c1ccc2c(c1)OCO2, the IC50 [5] was 11.6 µM (active).

With Cc1cccc2c1-c1sc(C(=O)Nc3ccccc3N3CCN(C)CC3)cc1CO2 the CC50 [6] was 18.8 µM (active).

With Cc1cccc(N2CCN(C(=O)CNC(=O)c3ccccc3)CC2)c1C the EC50 [2] was 11.3 µM (active), the EC50 [3] was > 60 µM (not active) and the EC50 [4] was 19.2 µM (active).

In the case of O=C(c1ccccc1)c1ccc(Oc2ccc(C(=O)O)c(C(=O)O)c2)cc1, the IC50 [7] is reported as > 100 µM (not active).

For CCCCC(CC)COC(=O)CCCCC(=O)OCC(CC)CCCC (stereo not given), the AC50 [8] was 20 µM (inconclusive).

In the case of COc1ccc(Oc2ncc3nc(C)c(=O)n(Cc4cccs4)c3n2)cc1, the AC50 [9] is reported as 39.8 µM (inconclusive), the AC50 [10] is reported as 25.1 µM (inconclusive) and the AC50 [1] is reported as 39.8 µM (inconclusive).

In the case of COc1cc(/C=C2\SC(=S)N(C(C(=O)O)c3ccccc3)C2=O)cc(OC)c1OC (stereo not given), the IC50 [5] is reported as > 100 µM (active).

For CNC(C)C#Cc1ccc2oc3cccc(OC)c3c(=O)c2c1 (stereo not given), the AC50 [11] was 24.3 µM (active).

With Cc1cc2cc(C=O)c(Cl)nc2cc1C the AC50 [12] was 10 µM (inconclusive), the AC50 [10] was 7.08 µM (inconclusive) and the AC50 [1] was 0.0708 µM (inconclusive).

With CSc1nc2sc3c(c2c(=O)n1C)CCC(C)C3 (stereo not given) the EC50 [2] was 19.9 µM (active), the EC50 [3] was 15.3 µM (active) and the EC50 [4] was 5.51 µM (active).

For COc1cccc(N2CCN(C3=C(Cl)C(=O)N(c4cccc(C(F)(F)F)c4)C3=O)CC2)c1, the IC50 [7] was > 50 µM (inconclusive).

With CCOC(=O)c1c(NC(=O)C(NCCN(C)C)c2ccccc2)sc2c1CCCC2 (stereo not given) the AC50 [13] was 10 µM (active), the CC50 [6] was 13.2 µM (active) and the IC50 [14] was > 20 µM (inactive).

For CC1CCC(NC(=O)Cn2cc3c(n2)CCCC3)CC1 (stereo not given), the EC50 [2] was 3.02 µM (active), the EC50 [3] was 4.09 µM (active) and the EC50 [4] was 0.278 µM (active).

With COC(c1ccccc1Br)C(C)/C=C/CCO (stereo not given) the AC50 [8] was 3.16 µM (inconclusive).

For Cc1c(Cl)c([N+](=O)[O-])nn1CC(=O)NC12CC3CC(CC(C3)C1)C2, the EC50 [15] was > 350 µM (not active) and the EC50 [16] was > 350 µM (not active).

For CC(C)OC(=O)c1sc2nc3c(cc2c1N)C(=O)CCC3, the EC50 [2] was 73.1 µM (active), the EC50 [3] was 41.6 µM (active) and the EC50 [4] was 41.9 µM (active).

With O=C(NCCc1c[nH]c2ccccc12)c1cc2ccccc2oc1=O the EC50 [2] was 119 µM (active), the EC50 [3] was 11 µM (active) and the IC50 [17] was 0.34 µM (active). For the same molecule, the EC50 [4] was 0.481 µM (active).

For O=C(CCl)NCCCCCCCCCNC(=O)CCl, the CC50 [6] was 19 µM (active), the EC50 [18] was > 150 µM (not active) and the EC50 [19] was > 150 µM (not active). The EC50 [20] was > 112 µM (not active), the EC50 [21] was > 150 µM (not active) and the EC50 [22] was 18.8 µM (active). The EC50 [23] was > 112 µM (not active).

For CC(SCc1cn2cc(Cl)ccc2n1)C(=O)O (stereo not given), the AC50 [1] was 28.2 µM (inconclusive).

With COc1ccc(C(=O)/C=C/c2ccccc2F)c(OC(=O)c2ccc([N+](=O)[O-])cc2)c1 the CC50 [24] was 20.9 µM (active).

In the case of CCOC(=O)c1cnc2c(Cl)cccc2c1NCCCN1CCOCC1, the AC50 [11] is reported as 32.7 µM (active).

With Cc1cccc(N2C(=O)C(Cl)=C(N3CCN(C/C=C/c4ccccc4)CC3)C2=O)c1 the IC50 [7] was > 50 µM (inconclusive).

For Cn1nc(-c2ccc(N3CCCCC3)c(NC(=O)c3ccco3)c2)c2ccccc2c1=O, the CC50 [6] was 26.3 µM (active), the EC50 [25] was 9.07 µM (active) and the EC50 [26] was > 60 µM (not active). The EC50 [27] was 7.35 µM (active) and the EC50 [28] was 1.23 µM (active).

With Cc1cc(NCCCN(C)C)n2c(nc3ccccc32)c1C#N the AC50 [11] was 18.7 µM (active).

For C#CCOc1c(/C=C\c2nc(O)c([N+](=O)[O-])c(O)n2)cc(Br)cc1OC, the IC50 [5] was 74.5 µM (active).

With OCCN1CCN(c2nc(-c3ccccc3O)nc3ccccc23)CC1 the AC50 [11] was 7.01 µM (active).

In the case of O=C1OCC(c2ccccc2)=C1c1ccc(S(=O)(=O)N2CCOCC2)s1, the AC50 [12] is reported as 28.2 µM (inconclusive), the AC50 [10] is reported as 31.6 µM (inconclusive) and the AC50 [1] is reported as 22.4 µM (inconclusive).

For CCCOc1ccc(CSC(CC(=O)O)C(=O)O)cc1 (stereo not given), the AC50 [1] was 0.224 µM (inconclusive).

For O=C(NNc1ccc([N+](=O)[O-])cn1)Nc1ccc(N=Nc2ccccc2)cc1, the CC50 [24] was 19.4 µM (active).

With COC(C)(C)CCCC(C)C/C=C/C(C)=C/C(=O)OC(C)C (stereo not given) the AC50 [8] was 31.6 µM (inconclusive).

For O=c1cc(-c2ccc(O)cc2)oc2cc(O)ccc12, the AC50 [8] was 7.94 µM (inconclusive).

In the case of Cc1occc1C(=O)N/N=C/c1cccc2ccccc12, the EC50 [2] is reported as 0.19 µM (active), the EC50 [3] is reported as 52.9 µM (active) and the EC50 [4] is reported as 0.129 µM (active).

With COc1cc(/C=N/NC(=O)c2cccc([N+](=O)[O-])c2)ccc1OCc1ccc(C)cc1 the AC50 [9] was 1.58 µM (inconclusive) and the AC50 [1] was 2.51 µM (inconclusive).

For Nc1ccc(Oc2ccc(N)cc2)cc1, the AC50 [8] was 31.6 µM (inconclusive).

With CN1CCCCC1c1ccc(-c2cccnc2)nc1 (stereo not given) [ANABASAMINE HYDROCHLORIDE] the AC50 [8] was 12.6 µM (inconclusive).

For COc1cc(C)c(C(=O)Oc2cc(C)c(C(=O)O)c(O)c2C)c(OC)c1C [DIFFRACTAIC ACID], the AC50 [29] was 0.784 µM (active) and the AC50 [8] was 25.1 µM (inconclusive).

With CS(C)(=O)=O [DIMETHYL SULFONE] the AC50 [8] was 20 µM (inconclusive).
